How the values were obtained:
[1] = system: human coronary artery endothelial cells (HCAEC); test: LDL permeability of HCAEC monolayers; type: cell-based; conditions: 12.5 to 12004/mL, 24 hrs to 5 day, FIGS. 6 and 7
Method: To test whether any of the RS isoforms could inhibit apoptosisn in human coronary artery endothelial cells (HCAEC), the HCAEC (human coronary artery endothelial cell) monolayers were incubated with each of two isoforms, RS#1 or RS#2, at concentrations ranging from 12.5 to 12004/mL for a period of time ranging from 24 hrs to 5 day, before the permeability of LDL (low density lipoprotein) was measured. In addition, some monolayers were induced to undergo apoptosis with TNF-α/CHX in the presence or absence of RS#1 or RS#2 and the permeability of LDL was measured. As shown in the figure, Dil means 11′-dioctadecyl-3,3-3′,3′-tetramethylindo-carbocyanide perchlorate. […] When the monolayers were induced to undergo apoptosis the permeability increased by ˜2-3-fold.

[2] = system: HCAEC monolayers; test: Water flux through HCAEC monolayers; type: cell-based, human; conditions: FIG. 8
[3] = system: HCAEC monolayers; test: Heparan sulfate immunostaining of HCAEC monolayers; type: cell-based, human; conditions: 1004/mL for 24 hrs; confocal microscope; FIG. 9
Method: HCAEC monolayers were incubated with RS#1 at 1004/mL for 24 hrs and immunostaining for heparan sulfate was performed. The monolayers were then imaged using a laser scanning confocal microscope. One control and one RS#1-treated monolayers were stained and four representative fields from each case were imaged. In control monolayers, heparan sulfate immunostaining seemed to be concentrated on the cell-cell junction area (FIG. 9A).

[4] = system: endothelial cells (EC); test: Disaccharide analysis of heparan sulfate synthesized by endothelial cells; type: cell-based; conditions: EC exposed to RS vs control cell fraction; FIG. 4
Method: Purified heparin sulfate (HS) from the endothelial cells (EC) exposed or not exposed to RS #2 were incubated with a mixture of heparin lyases (heparinase I and II, 2.5 mlU each, available from Sigma) and the disaccharides produced by the enzymatic action were separated on a Phenosphere SAX column (Phenomenex, Torrance, Calif., USA) 150×4.6 mm using a NaCl gradient of 0-1 M in 30 min with a flux of 1 mL/min. Individual fractions (0.5 mL) were collected and counted using a micro-beta counter. […] The abbreviations used in the figure are: GlcNS(6S)=2-deoxy-6-O-sulfo-2-(sulfoamino)-α-D-glucopyranoside; GlcA=β-D-glucopyranuronosyl; GlcNS(3S,6S)=2-deoxy-3,6-di-O-sulfo-2-(sulfoamino)-α-D-glucopyranosyl; IdoA(2S)=2-O-sulfo-α-L-idopyranuronosyl; and, GlcNS(6S)OMe=methyl-O-2-deoxy-6-O-sulfo-2-(sulfoamino)-α-D-glucopyranoside.
As for the heparin stimulus, the HS produced by these cells have more of heparin sequences [-4) IdoA2S(1-4)GlcNS,6S] (heparin's basic structure). […] Counting from the left, the RS-induced heparans are chains of disaccharide pairs like sugar groups number 4-5 hooked together. Additionally, the major fraction of stimulated heparan sulfate produced are tri-sulfated discaccharides (Iodo2S-GlcNS,6S), typical of the major sequence in heparin.

[5] = system: endothelial cells; test: Heparan sulfate (HS) stimulus experiment; type: cell-based; conditions: vs control; FIG. 10
Method: A heparin sulfate (HS) stimulus experiment was performed as known in the art, using the four RS isoforms described herein. […] While the results shown here are limited to the RS isoforms studied, the type of polysaccharides to which this applies can be expanded to other classes of compounds that likely have similar effects, such as PUFAs, non-sulfated PS, other polymers, and the like. These RS (and other similar acting substances found in nature) can be used for in vivo HS and GAG production instead of administering HS or other GAGS for therapeutic effect.

Substance: L-arginine (L-Arg) salt of rhamnan sulfate [RS #1]
- reduction of LDL permeability of control monolayers [1]: 5 fold
- decrease of water flux through HCAEC monolayers [2]: ~50%
- coverage of heparan sulfate on HCAEC monolayers (immunostaining) [3]: increased the coverage

Substance: rhamnan sulfate [RS #2]
- heparin sequences composed of the tri-sulfated disaccharide (ΔU2S-GlcNS,6S) in HS synthesized by EC [4]: significant increase
- reduction of LDL permeability of control monolayers [1]: 5 fold
- decrease of water flux through HCAEC monolayers [2]: ~20%

Substance: rhamnan sulfate [RS #3]
- cellular HS content (cellular fraction of heparans) [5]: no change

From patent US20130273096A1, “Therapeutic Sulfated Polysaccharides, Compositions Thereof, and Methods for Treating Patients” (priority 2011, published 2013)
